Test results reported in publication PMC10667816, “A Cell‐Penetrant Peptide Disrupting the Transcription Factor CP2c Complexes Induces Cancer‐Specific Synthetic Lethality” (Advanced Science, 2023).
*1 amine or outer side, *2 acyl side, *3 side chain or, on linkers, in order; H or OH if unused. Where a SMILES comes first, the peptide text is derived from it. Side-chain parts run from the residue outwards. The star is where a group is joined. γGlu = O=C(O)[C@H](CCC(=O)[*:2])N[*:1]; Palmitoyl = CCCCCCCCCCCCCCCC(=O)*

Columns and labels:
[1] = Nanoparticle formation in solution (DLS); assay type: physicochemical; details: DLS in saline, 25 °C, each sample analyzed five times
Protocol: For determining the dimensions and nanoparticle formation of the peptides in solution, DLS analysis was performed using the Scatteroscope I nanoparticle size analyzer (K‐One, SOS1). Saline served as the negative control, and all experiments were conducted at a constant temperature of 25 °C. Each sample was analyzed five times, and the resulting data were graphically presented, incorporating all five profiles obtained from the experiments. The purity and dimer formation of the peptides were analyzed using HPLC and LC‐MS. HPLC analysis was carried out using a Shimadzu HPLC LabSolution equipped with a pump, an autosampler, a column oven, and a UV–vis detector. Chromatographic separation was performed on a Shimadzu C18 analytical column at 35 °C, with an injection volume of 20 µL (0.5 mg mL^−1). The mobile phases consisted of 0.05% trifluoroacetic acid (TFA) in water (A) and 0.05% TFA in acetonitrile (B). The flow rate was maintained at 1 mL min^−1, and the gradient program was as follows: 20–80% B over 30 min. Ionization was achieved using electrospray ionization (ESI) in positive mode with selected reaction monitoring (SRM). Mass spectrometry analysis was performed with an ESI source in the positive‐ionization mode.

[2] = target: T1, endogenous nuclear and cytoplasmic CP2c complexes (Homo sapiens, UniProt Q12800); assay: DSP crosslinking‐Western blot of endogenous CP2c complexes; assay type: cell-based; details: DSP XL‐WB and WB with new protein synthesis inhibition
T1 construct: dissociated all endogenous nuclear and cytoplasmic CP2c complexes; endogenous in cells
Protocol: Cell extracts were prepared using lysis buffer (50 mM Tris‐HCl, pH 7.4, 150 mM NaCl, 1 mM EDTA, 0.1% triton X‐100, and 1 mM PMSF). The cell extracts were separated by SDS‐PAGE and electro‐blotted onto polyvinylidene difluoride (PVDF) membranes (GE healthcare, 10600069). For slot blotting, the cell extracts were blotted onto nitrocellulose (NC) membranes (GE healthcare, 10484059) using a Bio‐Dot (Bio‐Rad, 1706542). Typically, membranes were blocked with 5% non‐fat dry milk in a solution of 0.1% Tween 20, and with 5% BSA in case of biotin blotting. Membranes were incubated overnight at 4 °C with appropriate dilutions of the primary antibodies (listed in Table S4, Supporting Information) after blocking. The blots were incubated for 1 h at room temperature with the respective HRP‐conjugated secondary antibodies (listed in Table S4, Supporting Information). Polyclonal ACTB antibody was used as a loading control for WB. […] Relative amounts of proteins were quantified using Image J (ver. 1.51) program.
To determine DNA‐free CP2c containing complexes, live cells were washed twice with the 2.5 mM sodium phosphate buffer, pH 7.4, crosslinked using 2 mM DSP in PBS for 3 h on ice, and crosslinking was terminated with 50 mM Tris‐HCl, pH 7.4, for 15 min at room temperature. […] Crosslinked samples were analyzed by pulldown assay or mass spectrometry.

[3] = target: T2, CP2c (Mus musculus, UniProt Q9ERA0); assay: DNA‐IP assay of CP2c DNA binding; assay type: biochemical; details: 0–3 µM peptide, concentration‐dependent
T2 construct: extracts from iMEL cells (day 2); endogenous in cells; host or cells: nuclear extract of HMBA-induced MEL (iMEL) cells, day 2
Protocol: DNA‐IP assay was performed essentially as described previously.^[ [14] ^] Each of the oligonucleotides was mixed and annealed in the TEN buffer. For the radio‐labeling of the DNA probe, the annealed DNA was incubated with a mixture of dATP, dGTP, dTTP, [α^32P]‐dCTP, and Klenow enzyme in reaction buffer (5 mM NaCl, 1 mM Tris HCl, 1 mM MgCl2, and 0.1 mM DTT) for 30 min at 25 °C, and stopped by incubation with EDTA (10 mM final) for 20 min at 75 °C. The radio‐labeled DNA probe was purified by applying the reaction mixture to ProbeQuant G‐50 micro columns (GE healthcare, GE28‐9034‐08). Whole extracts prepared from transfecting 293T cells or purified GST fused CP2c proteins (wildtype and point mutants) were incubated with a [α^32P]‐labeled DNA probe in binding buffer (4% glycerol, 10 mM Tris‐HCl, pH 7.4, 1 mM DTT, 1 mM EDTA, and 0.1% NP‐40) for 15 min at room temperature. Then 0–3 µM of peptides (Pep #5, Pep #8, Pep #5‐1, Pep #5‐2, and Pep #5‐2C) were added to the DNA‐protein mixture, and the mixtures were incubated for 15 min at room temperature (peptide sequences are listed in Table S3, Supporting Information). For IP, precleared extracts were incubated overnight at 4 °C with 1 µg of the following primary antibodies (CP2c, CP2b, and PIAS1). […] The radioactivity of the eluted probe was measured by scintillation counting.

T1 sequence (Q12800 whole entry, one chain of several): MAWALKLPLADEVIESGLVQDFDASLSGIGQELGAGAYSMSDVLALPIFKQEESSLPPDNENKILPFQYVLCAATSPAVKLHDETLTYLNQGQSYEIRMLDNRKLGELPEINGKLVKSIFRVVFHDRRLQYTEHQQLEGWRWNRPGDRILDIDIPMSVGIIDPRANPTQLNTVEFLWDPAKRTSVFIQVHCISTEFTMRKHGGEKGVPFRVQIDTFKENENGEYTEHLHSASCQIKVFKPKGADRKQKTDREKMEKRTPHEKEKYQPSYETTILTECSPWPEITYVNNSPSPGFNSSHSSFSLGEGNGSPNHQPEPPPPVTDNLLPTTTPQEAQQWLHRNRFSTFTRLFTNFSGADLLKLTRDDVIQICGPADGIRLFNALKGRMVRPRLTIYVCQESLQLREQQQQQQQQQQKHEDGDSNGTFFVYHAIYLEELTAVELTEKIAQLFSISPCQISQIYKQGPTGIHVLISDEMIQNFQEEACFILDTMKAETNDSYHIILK
T2 sequence (Q9ERA0 whole entry): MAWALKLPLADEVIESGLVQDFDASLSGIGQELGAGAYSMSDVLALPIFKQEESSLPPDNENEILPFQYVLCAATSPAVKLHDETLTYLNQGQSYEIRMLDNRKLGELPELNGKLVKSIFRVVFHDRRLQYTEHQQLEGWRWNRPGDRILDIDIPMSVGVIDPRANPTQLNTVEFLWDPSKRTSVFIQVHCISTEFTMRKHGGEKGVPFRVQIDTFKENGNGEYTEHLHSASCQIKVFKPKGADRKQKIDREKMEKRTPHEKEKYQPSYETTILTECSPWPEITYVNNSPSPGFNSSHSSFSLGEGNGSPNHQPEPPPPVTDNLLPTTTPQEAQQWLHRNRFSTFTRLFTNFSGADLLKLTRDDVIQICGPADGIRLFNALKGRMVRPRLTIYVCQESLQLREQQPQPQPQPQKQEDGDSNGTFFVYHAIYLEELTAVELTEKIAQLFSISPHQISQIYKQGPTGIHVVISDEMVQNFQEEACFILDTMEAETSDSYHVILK

Structure (SMILES) | nanoparticle formation [1] | dissociation of endogenous CP2c complexes [2] | inhibition of DNA binding activity of CP2c [3]
CCCCCCCCCCCCCCCC(=O)N[C@@H](CCC(=O)NCCCC[C@H](NC(=O)CNC(=O)CNC(=O)[C@@H]1CCCN1C(=O)[C@H](CCCNC(=N)N)NC(=O)[C@H](CCC(N)=O)NC(=O)[C@@H]1CCCN1C(=O)[C@H](Cc1ccc(O)cc1)NC(=O)[C@H](CC(N)=O)NC(C)=O)C(=O)NCC(=O)NCC(=O)N[C@@H](CS)C(=O)N[C@@H](CCCNC(=N)N)C(=O)NCC(=O)N[C@@H](CC(=O)O)C(=O)N[C@@H](CCCCN)C(=O)NCC(=O)N1CCC[C@H]1C(=O)N[C@@H](CC(=O)O)C(=O)N[C@@H](CS)C(N)=O)C(=O)O [ACP52CGK] (Ac-NYPQRPGGK([γGlu-Palmitoyl])GGCRGDKGPDC-NH2) | significant reduction in nanoparticle formation | – | –
CC(=O)N[C@@H](CC(N)=O)C(=O)N[C@@H](Cc1ccc(O)cc1)C(=O)N1CCC[C@H]1C(=O)N[C@@H](CCC(N)=O)C(=O)N[C@@H](CCCNC(=N)N)C(=O)N1CCC[C@H]1C(=O)N[C@@H](CS)C(=O)N[C@@H](CCCNC(=N)N)C(=O)NCC(=O)N[C@@H](CC(=O)O)C(=O)N[C@@H](CCCCN)C(=O)NCC(=O)N1CCC[C@H]1C(=O)N[C@@H](CC(=O)O)C(=O)N[C@@H](CS)C(N)=O [ACP52C] (Ac-NYPQRPCRGDKGPDC-NH2) | majority of ACP52C exists in the form of nanoparticles in saline | readily dissociated all endogenous nuclear and cytoplasmic CP2c complexes | –
CCOc1ccccc1C1CC(=O)Nc2cc3c(cc21)OCO3 (stereo not shown) [FQI1, Factor Quinolinone Inhibitor 1, reference compound] | – | – | proficient inhibition of DNA binding
